Legend:
mice [1] = test: Excitotoxicity assessment: PTZ-induced seizures; format: in vivo, mouse; conditions: single i.p. injection 40 mg/kg
Protocol: (§1) Drugs were dissolved in PBS and delivered by intraperitoneal injection. Pentylenetetrazole (PTZ, Sigma, St. Louis, Mo.) was used at a concentration of 5 mg/ml and a dose of 40 mg/kg. Kainate (Tocris, Ellisville, Mo.) was used at a concentration of 2 mg/ml and doses ranging from 20-40 mg/kg. For mice given PTZ, each mouse was placed in a cage and observed for 20 min after administration, with video recording. An investigator blinded to genotype analyzed the videotapes to quantify the time course and severity of seizures according to published scales (9, 10). Seizures severity scores were: 0=normal behavior; 1=immobility; 2=generalized spasm, tremble, or twitch; 3=tail extension; 4=forelimb clonus; 5=generalized clonic activity; 6=bouncing or running seizures; 7=full tonic extension; 8=death. For mice given KA, each mouse was placed in a cage and observed for 3 hours after administration. An investigator blinded to genotype quantified the time course and severity of seizures according to published scales (11); the percentage of mice attaining stage 6 (generalized tonic-clonic seizures) is presented.
A value of P<0.05 was considered significant. Error bars represent standard error of the mean. Survival data (FIG. 2E) was analyzed with Kaplan-Meier statistics and post-hoc log rank tests. Fisher's exact test was used to analyze occurrence of fatal status epilepticus after PTZ injection. Logistic regression was used to generate and compare dose-response curves for the proportion of mice seizing after KA administration (FIG. 4D). For other experiments, genotype differences were analyzed by ANOVA (repeated measures where indicated), using the Tukey test for post-hoc comparisons.

mice [2] = test: Excitotoxicity assessment: kainate-induced seizures; format: in vivo, mouse; conditions: Tau^+/+ mice, single i.p. injection, 20-40 mg/kg, age 2-5 months
Protocol: as §1
A value of P<0.05 was considered significant. […] Survival data (FIG. 2E) was analyzed with Kaplan-Meier statistics and post-hoc log rank tests. […] For other experiments, genotype differences were analyzed by ANOVA (repeated measures where indicated), using the Tukey test for post-hoc comparisons.

Row | SMILES | mice suffering fatal status epilepticus (mice [1]; hAPP/Tau^+/+ mice, age 4-7 months) | death after PTZ (mice [1]; hAPP/Tau^+/− and hAPP/Tau^−/− mice) | lethality of the dose (mice [1]; mice without hAPP) | induction of generalized tonic-clonic seizures (mice [2])
1 | C1CCc2nnnn2CC1 [PTZ, Pentylenetetrazole] | 20% | no hAPP/Tau^+/− or hAPP/Tau^−/− mice died | non-lethal | 
2 | C=C(C)[C@H]1CN[C@H](C(=O)O)[C@H]1CC(=O)O [kainate, Kainate] |  |  |  | dose-dependently induced seizures

Source: patent US9084813B2, “Agents that reduce neuronal overexcitation” (The J. David Gladstone Institutes, priority 2007, dated 2015)
